Molecular target: T1, GlyT1 (Homo sapiens, UniProt P48067)
T1 construct: expressed in transfected cells
T1 sequence (P48067 1-706): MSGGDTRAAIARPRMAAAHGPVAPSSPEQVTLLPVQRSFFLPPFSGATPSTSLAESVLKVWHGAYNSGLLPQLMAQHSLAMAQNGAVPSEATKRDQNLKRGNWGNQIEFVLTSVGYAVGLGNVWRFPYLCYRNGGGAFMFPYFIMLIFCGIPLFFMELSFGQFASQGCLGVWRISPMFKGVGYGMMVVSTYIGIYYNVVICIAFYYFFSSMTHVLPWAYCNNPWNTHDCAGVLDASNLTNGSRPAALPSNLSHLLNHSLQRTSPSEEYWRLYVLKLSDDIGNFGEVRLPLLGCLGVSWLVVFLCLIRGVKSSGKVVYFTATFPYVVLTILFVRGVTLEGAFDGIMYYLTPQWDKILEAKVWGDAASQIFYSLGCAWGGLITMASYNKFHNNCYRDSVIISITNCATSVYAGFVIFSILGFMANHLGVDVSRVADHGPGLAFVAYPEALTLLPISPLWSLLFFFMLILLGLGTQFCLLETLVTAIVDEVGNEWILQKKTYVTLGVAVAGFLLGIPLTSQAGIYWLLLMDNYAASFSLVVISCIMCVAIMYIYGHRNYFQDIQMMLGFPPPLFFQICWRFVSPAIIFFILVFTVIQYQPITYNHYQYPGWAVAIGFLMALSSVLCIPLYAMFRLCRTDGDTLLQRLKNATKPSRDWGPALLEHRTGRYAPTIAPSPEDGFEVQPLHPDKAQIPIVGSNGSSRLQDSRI
Assay: Glycine Transporter 1 (GlyT1) uptake assay, scintillation proximity assay of [14C]-glycine uptake
Assay type: cell-based
Conditions: [14C]-glycine uptake; read-out: GlyT1 (pIC50) (converted)
How it was run: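 IC50 values were derived by four-parameter logistic fitting of counts. The 2× compound solutions were made by 1:100 dilution into HBSS of DMSO serial dilutions.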

| IC50 | Compound |
| --- | --- |
| 100 to 1000 nM | COc1c(S(C)(=O)=O)ccc(OCC(F)(F)F)c1C(=O)N1CC(Oc2ccc(Cl)cc2)C1 [Example 222, 3-(4-Chlorophenoxy)-1-[3-methanesulfonyl-2-methoxy-6-(2,2,2-trifluoroethoxy)benzoyl]azetidine] |
| 100 to 1000 nM | COc1c(S(C)(=O)=O)ccc(OCC(F)(F)F)c1C(=O)N1CC(Oc2ccc(C(F)(F)F)cc2)C1 [Example 223, 1-[3-Methanesulfonyl-2-methoxy-6-(2,2,2-trifluoroethoxy)benzoyl]-3-[4-(trifluoromethyl)phenoxy]azetidine] |
| 100 to 1000 nM | COc1c(S(C)(=O)=O)ccc(OCC(F)(F)F)c1C(=O)N1CC(Oc2ccc(F)cc2C)C1 [Example 224, 3-(4-Fluoro-2-methylphenoxy)-1-[3-methanesulfonyl-2-methoxy-6-(2,2,2-trifluoroethoxy)benzoyl]azetidine] |
| 100 to 1000 nM | COc1c(S(C)(=O)=O)ccc(OCC(F)(F)F)c1C(=O)N1CC(Oc2c(F)cc(F)cc2F)C1 [Example 225, 1-[3-Methanesulfonyl-2-methoxy-6-(2,2,2-trifluoroethoxy)benzoyl]-3-(2,4,6-trifluorophenoxy)azetidine] |
| 100 to 1000 nM | COc1c(S(C)(=O)=O)ccc(OCC(F)(F)F)c1C(=O)N1CC(Oc2cc(F)c(F)cc2F)C1 [Example 226, 1-[3-Methanesulfonyl-2-methoxy-6-(2,2,2-trifluoroethoxy)benzoyl]-3-(2,4,5-trifluorophenoxy)azetidine] |
| 100 to 1000 nM | COc1c(S(C)(=O)=O)ccc(OCC(F)(F)F)c1C(=O)N1CC(Oc2ccc(F)cc2F)C1 [Example 227, 3-(2,4-Difluorophenoxy)-1-[3-methanesulfonyl-2-methoxy-6-(2,2,2-trifluoroethoxy)benzoyl]azetidine] |
| 100 to 1000 nM | COc1c(S(C)(=O)=O)ccc(OCC(F)(F)F)c1C(=O)N1CC(c2ccc(F)c(F)c2)C1 [Example 228, 3-(3,4-Difluorophenyl)-1-[3-methanesulfonyl-2-methoxy-6-(2,2,2-trifluoroethoxy)benzoyl]azetidine] |
| 100 to 1000 nM | COc1c(S(C)(=O)=O)ccc(OCC(F)(F)F)c1C(=O)N1CC(c2ccc(C(F)(F)F)cn2)C1 [Example 229, 2-{1-[3-Methanesulfonyl-2-methoxy-6-(2,2,2-trifluoroethoxy)benzoyl]azetidin-3-yl}-5-(trifluoromethyl)pyridine] |
| 100 to 1000 nM | COc1c(S(C)(=O)=O)ccc(OCC(F)(F)F)c1C(=O)N1CC(c2ncc(C(F)(F)F)cc2Cl)C1 [Example 230, 3-Chloro-2-{1-[3-methanesulfonyl-2-methoxy-6-(2,2,2-trifluoroethoxy)benzoyl]azetidin-3-yl}-5-(trifluoromethyl)pyridine] |
| 100 to 1000 nM | COc1c(S(C)(=O)=O)ccc(OCC(F)(F)F)c1C(=O)N1CC(c2ncc(C(F)(F)F)cc2F)C1 [Example 231, 3-Fluoro-2-{1-[3-methanesulfonyl-2-methoxy-6-(2,2,2-trifluoroethoxy)benzoyl]azetidin-3-yl}-5-(trifluoromethyl)pyridine] |
| < 100 nM | COc1c(S(C)(=O)=O)ccc(OCC(F)(F)F)c1C(=O)N1CC(Oc2ccc(Cl)cn2)C1 [Example 232, 5-Chloro-2-({1-[3-methanesulfonyl-2-methoxy-6-(2,2,2-trifluoroethoxy)benzoyl]azetidin-3-yl}oxy)pyridine] |

Second part, the molecule before the results:

| Compound | IC50 |
| --- | --- |
| COc1c(S(C)(=O)=O)ccc(O[C@@H](C)C(F)(F)F)c1C(=O)N1CC(Oc2c(F)cccc2F)C1 [Example 203, 3-(2,6-Difluorophenoxy)-1-(3-methanesulfonyl-2-methoxy-6-{[(2S)-1,1,1-trifluoropropan-2-yl]oxy}benzoyl)azetidine] | 100 to 1000 nM |
| COc1c(S(C)(=O)=O)ccc(O[C@@H](C)C(F)(F)F)c1C(=O)N1CC(Oc2ccc(F)cc2F)C1 [Example 204, 3-(2,4-Difluorophenoxy)-1-(3-methanesulfonyl-2-methoxy-6-{[(2S)-1,1,1-trifluoropropan-2-yl]oxy}benzoyl)azetidine] | < 100 nM |
| COc1c(S(C)(=O)=O)ccc(O[C@@H](C)C(F)(F)F)c1C(=O)N1CC(Oc2cc(F)ccc2F)C1 [Example 205, 3-(2,5-Difluorophenoxy)-1-(3-methanesulfonyl-2-methoxy-6-{[(2S)-1,1,1-trifluoropropan-2-yl]oxy}benzoyl)azetidine] | < 100 nM |
| COc1c(S(C)(=O)=O)ccc(O[C@@H](C)C(F)(F)F)c1C(=O)N1CC(Oc2cccc(F)c2F)C1 [Example 206, 3-(2,3-Difluorophenoxy)-1-(3-methanesulfonyl-2-methoxy-6-{[(2S)-1,1,1-trifluoropropan-2-yl]oxy}benzoyl)azetidine] | < 100 nM |
| COc1c(S(C)(=O)=O)ccc(O[C@@H](C)C(F)(F)F)c1C(=O)N1CC(Oc2cccc(F)c2)C1 [Example 207, 3-(3-Fluorophenoxy)-1-(3-methanesulfonyl-2-methoxy-6-{[(2S)-1,1,1-trifluoropropan-2-yl]oxy}benzoyl)azetidine] | < 100 nM |
| COc1c(C#N)ccc(C2(F)CCOCC2)c1C(=O)N1CC(c2ccc(C(F)(F)F)cc2)C1 [Example 208, 4-(4-Fluorooxan-4-yl)-2-methoxy-3-({3-[4-(trifluoromethyl)phenyl]azetidin-1-yl}carbonyl)benzonitrile] | < 100 nM |
| COc1c(C#N)ccc(C2CCCC2)c1C(=O)N1CC(c2ncc(C(F)(F)F)cc2Cl)C1 [Example 209, 3-{3-[3-Chloro-5-(trifluoromethyl)pyridin-2-yl]azetidine-1-carbonyl}-4-cyclopentyl-2-methoxybenzonitrile] | 100 to 1000 nM |
| COc1c(C#N)ccc(C2CCCC2)c1C(=O)N1CC(c2ncc(C(F)(F)F)cc2F)C1 [Example 210, 4-Cyclopentyl-3-{3-[3-fluoro-5-(trifluoromethyl)pyridin-2-yl]azetidine-1-carbonyl}-2-methoxybenzonitrile] | < 100 nM |
| COc1c(C#N)ccc(C2CCCC2)c1C(=O)N1CC(Oc2ccc(C(F)(F)F)cc2)C1 [Example 211, 4-Cyclopentyl-2-methoxy-3-{3-[4-(trifluoromethyl)phenoxy]azetidine-1-carbonyl}benzonitrile] | 100 to 1000 nM |
| COc1c(C#N)ccc(C2CCCC2)c1C(=O)N1CC(Oc2c(F)cc(F)cc2F)C1 [Example 212, 4-Cyclopentyl-2-methoxy-3-[3-(2,4,6-trifluorophenoxy)azetidine-1-carbonyl]benzonitrile] | 100 to 1000 nM |
| COc1c(S(C)(=O)=O)ccc(OC(C)C)c1C(=O)N1CC(c2ccc(C(F)(F)F)cn2)C1 [Example 213, 2-{1-[3-Methanesulfonyl-2-methoxy-6-(propan-2-yloxy)benzoyl]azetidin-3-yl}-5-(trifluoromethyl)pyridine] | 100 to 1000 nM |
| COc1c(S(C)(=O)=O)ccc(OC(C)C)c1C(=O)N1CC(c2ncc(C(F)(F)F)cc2Cl)C1 [Example 214, 3-Chloro-2-{1-[3-methanesulfonyl-2-methoxy-6-(propan-2-yloxy)benzoyl]azetidin-3-yl}-5-(trifluoromethyl)pyridine] | < 100 nM |
| COc1c(S(C)(=O)=O)ccc(OC(C)C)c1C(=O)N1CC(c2ncc(C(F)(F)F)cc2F)C1 [Example 215, 3-Fluoro-2-{1-[3-methanesulfonyl-2-methoxy-6-(propan-2-yloxy)benzoyl]azetidin-3-yl}-5-(trifluoromethyl)pyridine] | 100 to 1000 nM |
| COc1c(S(C)(=O)=O)ccc(OC(C)C)c1C(=O)N1CC(c2ccc(F)c(F)c2)C1 [Example 216, 3-(3,4-Difluorophenyl)-1-[3-methanesulfonyl-2-methoxy-6-(propan-2-yloxy)benzoyl]azetidine] | 100 to 1000 nM |
| COc1c(S(C)(=O)=O)ccc(OC(C)C)c1C(=O)N1CC(c2ccc(C(F)(F)F)cc2)C1 [Example 217, 1-[3-Methanesulfonyl-2-methoxy-6-(propan-2-yloxy)benzoyl]-3-[4-(trifluoromethyl)phenyl]azetidine] | 100 to 1000 nM |
| COc1c(S(C)(=O)=O)ccc(OC(C)C)c1C(=O)N1CC(Oc2ccc(C(F)(F)F)cc2)C1 [Example 218, 1-[3-Methanesulfonyl-2-methoxy-6-(propan-2-yloxy)benzoyl]-3-[4-(trifluoromethyl)phenoxy]azetidine] | 100 to 1000 nM |
| COc1c(S(C)(=O)=O)ccc(OC(C)C)c1C(=O)N1CC(Oc2ccc(Cl)cc2)C1 [Example 219, 3-(4-Chlorophenoxy)-1-[3-methanesulfonyl-2-methoxy-6-(propan-2-yloxy)benzoyl]azetidine] | 100 to 1000 nM |
| COc1c(S(C)(=O)=O)ccc(OC(C)C)c1C(=O)N1CC(Oc2ccc(F)cc2F)C1 [Example 220, 3-(2,4-Difluorophenoxy)-1-[3-methanesulfonyl-2-methoxy-6-(propan-2-yloxy)benzoyl]azetidine] | 100 to 1000 nM |
| COc1c(S(C)(=O)=O)ccc(OC(C)C)c1C(=O)N1CC(Oc2c(F)cc(F)cc2F)C1 [Example 221, 1-[3-Methanesulfonyl-2-methoxy-6-(propan-2-yloxy)benzoyl]-3-(2,4,6-trifluorophenoxy)azetidine] | < 100 nM |

From patent publication US10040759B2, “Substituted azetidinyl compounds as GlyT1 inhibitors” (DART NEUROSCIENCE (CAYMAN) LTD., priority 2014, dated 2018)
